Laboratory results reported in ChEMBL document CHEMBL3414511, “Synthesis of a novel class of substituted benzothiophene or benzofuran derivatives as BMP-2 up-regulators and evaluation of the BMP-2-up-regulating effects in vitro and the effects on glucocorticoid-induced osteoporosis in rats” (Eur J Med Chem, 2015).
Calls of active or inactive are those of the source. The calls are words filed in the database; no cut-off is given here.

Legend:
Rattus norvegicus [1] = assay: Toxicity in glucocorticoid-induced Wistar rat osteoporosis model assessed as white blood cells at 30 mg/kg/day, po administered six times a week for 3 months (reference value: 6.28 +/- 2.78 x 10^9/L); format: organism-based; set-up: route oral; details: in vivo
Rattus norvegicus [2] = assay: Toxicity in glucocorticoid-induced Wistar rat osteoporosis model assessed as lymph level at 30 mg/kg/day, po administered six times a week for 3 months (reference value: 50.35 +/- 12.96%); format: organism-based; set-up: route oral; details: in vivo
Rattus norvegicus [3] = assay: Toxicity in glucocorticoid-induced Wistar rat osteoporosis model assessed as neutrophilic granulocytes level at 30 mg/kg/day, po administered six times a week for 3 months (reference value: 31.95 +/- 8.33%); format: organism-based; set-up: route oral; details: in vivo
Rattus norvegicus [4] = assay: Toxicity in glucocorticoid-induced Wistar rat osteoporosis model assessed as effect on red blood cells at 30 mg/kg/day, po administered six times a week for 3 months; format: organism-based; set-up: route oral; details: in vivo
Rattus norvegicus [5] = assay: Toxicity in glucocorticoid-induced Wistar rat osteoporosis model assessed as effect on hemoglobin at 30 mg/kg/day, po administered six times a week for 3 months; format: organism-based; set-up: route oral; details: in vivo
Rattus norvegicus [6] = assay: Toxicity in glucocorticoid-induced Wistar rat osteoporosis model assessed as effect on red blood cell specific volume at 30 mg/kg/day, po administered six times a week for 3 months; format: organism-based; set-up: route oral; details: in vivo
Rattus norvegicus [7] = assay: Toxicity in glucocorticoid-induced Wistar rat osteoporosis model assessed as effect on mean corpuscular volume at 30 mg/kg/day, po administered six times a week for 3 months; format: organism-based; set-up: route oral; details: in vivo
Rattus norvegicus [8] = assay: Toxicity in glucocorticoid-induced Wistar rat osteoporosis model assessed as effect on mean corpuscular hemoglobin concentration at 30 mg/kg/day, po administered six times a week for 3 months; format: organism-based; set-up: route oral; details: in vivo
Rattus norvegicus [9] = assay: Toxicity in glucocorticoid-induced Wistar rat osteoporosis model assessed as effect on red blood cell distribution width at 30 mg/kg/day, po administered six times a week for 3 months; format: organism-based; set-up: route oral; details: in vivo
Rattus norvegicus [10] = assay: Toxicity in glucocorticoid-induced Wistar rat osteoporosis model assessed as effect on platelets at 30 mg/kg/day, po administered six times a week for 3 months; format: organism-based; set-up: route oral; details: in vivo
[11] = Upregulation of BMP-2 expression in mouse MC3T3-E1 cells at 4 uM after 24 hrs by luciferase reporter gene assay relative to control; format: functional, cell-based
Rattus norvegicus [12] = assay: Toxicity in glucocorticoid-induced Wistar rat osteoporosis model assessed as aspartate transaminase level at 30 mg/kg/day, po administered six times a week for 3 months (reference value: 177.55 +/- 116.98 U/L); format: organism-based; set-up: route oral; details: in vivo
Rattus norvegicus [13] = assay: Toxicity in glucocorticoid-induced Wistar rat osteoporosis model assessed as alanine transaminase level at 30 mg/kg/day, po administered six times a week for 3 months (reference value: 43.73 +/- 36.21 U/L); format: organism-based; set-up: route oral; details: in vivo
Rattus norvegicus [14] = assay: Toxicity in glucocorticoid-induced Wistar rat osteoporosis model assessed as triglycerides level at 30 mg/kg/day, po administered six times a week for 3 months (reference value: 1.13 +/- 0.69 mmol/L); format: organism-based; set-up: route oral; details: in vivo
Rattus norvegicus [15] = assay: Toxicity in glucocorticoid-induced Wistar rat osteoporosis model assessed as effect on total bilirubin level at 30 mg/kg/day, po administered six times a week for 3 months; format: organism-based; set-up: route oral; details: in vivo
Rattus norvegicus [16] = assay: Toxicity in glucocorticoid-induced Wistar rat osteoporosis model assessed as effect on total protein level at 30 mg/kg/day, po administered six times a week for 3 months; format: organism-based; set-up: route oral; details: in vivo
Rattus norvegicus [17] = assay: Toxicity in glucocorticoid-induced Wistar rat osteoporosis model assessed as effect on albumin level at 30 mg/kg/day, po administered six times a week for 3 months; format: organism-based; set-up: route oral; details: in vivo
Rattus norvegicus [18] = assay: Toxicity in glucocorticoid-induced Wistar rat osteoporosis model assessed as effect on blood urea nitrogen level at 30 mg/kg/day, po administered six times a week for 3 months; format: organism-based; set-up: route oral; details: in vivo
Rattus norvegicus [19] = assay: Toxicity in glucocorticoid-induced Wistar rat osteoporosis model assessed as effect on creatinine level at 30 mg/kg/day, po administered six times a week for 3 months; format: organism-based; set-up: route oral; details: in vivo
Rattus norvegicus [20] = assay: Toxicity in glucocorticoid-induced Wistar rat osteoporosis model assessed as effect on glucose level at 30 mg/kg/day, po administered six times a week for 3 months; format: organism-based; set-up: route oral; details: in vivo
Rattus norvegicus [21] = assay: Antiosteoporotic activity in glucocorticoid-induced Wistar rat osteoporosis model appearance of turbulent and sparse rarefection of trabecula at 30 mg/kg/day, po administered six times a week for 3 months by toluidine blue staining-based light microscopic analysis; format: functional, organism-based
Rattus norvegicus [22] = assay: Antiosteoporotic activity in glucocorticoid-induced Wistar rat osteoporosis model assessed as trabecular bone volume at 30 mg/kg/day, po administered six times a week for 3 months by fluorescence assay (reference value: 33.09 +/- 5.15%); format: functional, Trabecula
Rattus norvegicus [23] = assay: Antiosteoporotic activity in glucocorticoid-induced Wistar rat osteoporosis model assessed as trabecula formation surface at 30 mg/kg/day, po administered six times a week for 3 months by fluorescence assay (reference value: 7.82 +/- 2.46%); format: functional
Rattus norvegicus [24] = assay: Antiosteoporotic activity in glucocorticoid-induced Wistar rat osteoporosis model assessed as trabecula resorption surface at 30 mg/kg/day, po administered six times a week for 3 months by fluorescence assay (reference value: 7.22 +/- 2.04%); format: functional
Rattus norvegicus [25] = assay: Antiosteoporotic activity in glucocorticoid-induced Wistar rat osteoporosis model assessed as mineral apposition rate at 30 mg/kg/day, po administered six times a week for 3 months by fluorescence assay (reference value: 1.06 +/- 0.27 micrometer/day); format: functional

Structure (SMILES): CC(=O)c1cc2ccc(C(=O)O)cc2s1
- Activity (Rattus norvegicus [1]): 3.55 ×10⁹ /L
- Activity (Rattus norvegicus [2]): 35.72%
- Activity (Rattus norvegicus [3]): 47.16%
- Activity (Rattus norvegicus [4]): Non-toxic
- Activity (Rattus norvegicus [5]): Non-toxic
- Activity (Rattus norvegicus [6]): Non-toxic
- Activity (Rattus norvegicus [7]): Non-toxic
- Activity (Rattus norvegicus [8]): Non-toxic
- Activity (Rattus norvegicus [9]): Non-toxic
- Activity (Rattus norvegicus [10]): Non-toxic
- Activity [11]: 102%
- Activity (Rattus norvegicus [12]): 123.33 U/L
- Activity (Rattus norvegicus [13]): 31.17 U/L
- Activity (Rattus norvegicus [14]): 0.53 mmol/L
- Activity (Rattus norvegicus [15]): Non-toxic
- Activity (Rattus norvegicus [16]): Non-toxic
- Activity (Rattus norvegicus [17]): Non-toxic
- Activity (Rattus norvegicus [18]): Non-toxic
- Activity (Rattus norvegicus [19]): Non-toxic
- Activity (Rattus norvegicus [20]): Non-toxic
- Activity (Rattus norvegicus [21]): inactive
- Activity (Rattus norvegicus [22]): 20.5%
- Activity (Rattus norvegicus [23]): 4.61%
- Activity (Rattus norvegicus [24]): 10.9%
- Activity (Rattus norvegicus [25]): 0.97 micrometer/day
